Patent publication US11999746B2, “Compounds” (GlaxoSmithKline Intellectual Property Development Limited, priority 2014, dated 2024)

Tests used:
Assay type in all cases: biochemical
[1] = molecular target: T1, recombinant human Lp-PLA2 (Homo sapiens, UniProt Q13093); assay: (1b) hrThioPAF assay, recombinant human Lp-PLA2; conditions: Examples 266-412 were tested here, one experiment or average of multiple experiments, read-out: rhLp-PLA2 (pIC50) (converted)
T1 sequence (Q13093 22-441): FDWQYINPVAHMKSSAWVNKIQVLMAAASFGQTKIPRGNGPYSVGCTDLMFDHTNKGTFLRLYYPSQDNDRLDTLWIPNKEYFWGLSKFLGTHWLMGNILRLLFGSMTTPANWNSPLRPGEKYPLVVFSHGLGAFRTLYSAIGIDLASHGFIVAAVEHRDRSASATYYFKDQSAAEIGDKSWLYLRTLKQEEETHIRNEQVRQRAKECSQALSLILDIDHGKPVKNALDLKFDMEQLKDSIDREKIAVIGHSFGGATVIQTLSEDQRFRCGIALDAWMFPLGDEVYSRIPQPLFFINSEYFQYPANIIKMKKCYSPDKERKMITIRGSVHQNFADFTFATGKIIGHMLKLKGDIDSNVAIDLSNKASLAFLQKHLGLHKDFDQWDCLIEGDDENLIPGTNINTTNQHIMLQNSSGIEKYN
Source text: 1-O-Hexadecyl-2-deoxy-2-thio-S-acetyl-sn-glyceryl-3-phosphorylcholine (2-thio-PAF) is a substrate for PAF-hydrolases (PAF-AH) commercially available from Cayman Chemical. Upon cleavage with PAF-AH, the free thiol is released at the sn-2 position and can then react with 7-diethylamino-3-(4′-maleimidylphenyl)-4-methylcoumarin (CPM) a thiol-reactive coumarin. This reaction (Michael addition) results in an increase in fluorescence. Inhibitors of Lp-PLA2 therefore prevent this cleavage and no fluorescent increase is observed.
The Thio-PAF assay was run as an unquenched 20 μL assay. The source plate containing the compounds to be tested was prepared by making 1:3 (by volume) serial dilution of the compounds within DMSO on 384-well microplate. Then, 5 μL of the compounds on compound source plate were transferred into 384 well Greiner 784076 (black) plates using STAR+(Hamilton) liquid dispenser. 10 μL of recombinant human Lp-PLA2 enzyme (20 pM rhLp-PLA2 in assay buffer of 50 mM HEPES, pH 7.4, 150 mM NaCl, 1 mM CHAPS) was added to each well of the plate. 5 μL of substrate comprising 40 μM 2-thio-PAF [from ethanol stock], 40 μM CPM [from a DMSO stock] and 400 μM NEM (N-ethylmaleimide) [made fresh daily in DMSO] in assay buffer (50 mM HEPES, pH 7.4, 150 mM NaCl, 1 mM CHAPS) was added to 384 well Greiner 784076 black plates. Plates were vortexed for 10 sec. The plate was covered to protect it from light and incubated for 20 min at 25° C. The plates were read for fluorescence intensity at ex: 380 nm/em: 485 nm using Envision plate reader (Perkin Elmer). Raw data were transferred to Excel software and pIC50 data, curve and QC analysis was conducted by using XL fit module in Excel.

Lp-PLA2 in human plasma = molecular target: T2, Lp-PLA2 in human plasma (Homo sapiens, UniProt Q13093); assay: (3a) Lp-PLA2 human plasma Thio-PAF assay; conditions: (3a) Thio-PAF assay, pooled human plasma; Examples 1-265 and 413-430 were tested here; read-out: pIC50 in the Lp-PLA2 human plasma assay (converted)
T2 construct: from tissue; host or cells: pooled human plasma
T2 sequence (Q13093 22-441): T1 sequence (Q13093 22-441)
Outline: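 Pooled human plasma preincubated 30 min with serially diluted compound, then given 2-thio-PAF substrate with CPM and NEM in 50 mM HEPES pH 7.4, 150 mM NaCl, 1 mM CHAPS. Reaction quenched with TFA after 2 min; CPM thiol-adduct fluorescence read at ex 380/em 485 after 40 min; pIC50 reported.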

[2] = molecular target: T1, recombinant human Lp-PLA2; assay: (1a) PED6 assay, recombinant human Lp-PLA2 (rhLp-PLA2); conditions: Examples 1-167 and 413-430 were tested here, one experiment or average of multiple experiments, read-out: rhLp-PLA2 (pIC50) (converted)
Outline: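 PED6 (2 μM final after 1:1 addition of 4 μM stock) cleavage by rhLp-PLA2 (4 nM working solution) in 50 mM HEPES pH 7.4, 150 mM NaCl, 1 mM CHAPS; compounds preincubated with enzyme 30 minutes, reaction 20 min at room temperature. Fluorescence at ex 480/em 540; pIC50 from curve fit.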

| Compound | IC50 [1] [nM] | IC50 (Lp-PLA2 in human plasma) [nM] | IC50 [2] [nM] |
| --- | --- | --- | --- |
| N#Cc1cc(CCOc2cc3n(c(=O)n2)CC2(CCOCC2)N3)ccc1F [Example 404, 2-Fluoro-5-(2-((5-oxo-2′,3,3′,5,5′,6′-hexahydro-1H-spiro[imidazo[1,2-c]pyrimidine-2,4′-pyran]-7-yl)oxy)ethyl)benzonitrile] | ≤ 10000 |  |  |
| O=c1nc(OCc2ccc(F)c(F)c2)cc2n1CC1(CCN(S(=O)(=O)C3CC3)CC1)N2 [Example 410, 1′-(Cyclopropylsulfonyl)-7-((3,4-difluorobenzyl)oxy)-1H-spiro[imidazo[1,2-c]pyrimidine-2,4′-piperidin]-5(3H)-one] | ≤ 1 |  |  |
| Cc1ccc(Oc2c(F)cc(COc3cc4n(c(=O)n3)C[C@H]3COCN43)cc2F)cn1 [Example E149, (S)-6-((3,5-difluoro-4-((6-methylpyridin-3-yl)oxy)benzyl)oxy)-10,10a-dihydro-1H-oxazolo[3′,4′:3,4]imidazo[1,2-c]pyrimidin-8(3H)-one] |  | ≤ 100 | ≤ 1 |
| CCCn1cc(Oc2c(F)cc(COc3cc4n(c(=O)n3)C[C@H]3COCN43)cc2F)cn1 [Example E150, (S)-6-((3,5-difluoro-4-((1-propyl-1H-pyrazol-4-yl)oxy)benzyl)oxy)-10,10a-dihydro-1H-oxazolo[3′,4′:3,4]imidazo[1,2-c]pyrimidin-8(3H)-one] |  | ≤ 100 | ≤ 100 |
| O=c1nc(OCc2cc(F)c(Oc3cnn(C(F)(F)F)c3)c(F)c2)cc2n1C[C@H]1COCN21 [Example E151, (S)-6-((3,5-difluoro-4-((1-(trifluoromethyl)-1H-pyrazol-4-yl)oxy)benzyl)oxy)-10,10a-dihydro-1H-oxazolo[3′,4′:3,4]imidazo[1,2-c]pyrimidin-8(3H)-one] |  | ≤ 100 | ≤ 1 |
| Cc1ncc(Oc2c(F)cc(COc3cc4n(c(=O)n3)C[C@H]3COCN43)cc2F)cn1 [Example E152, (S)-6-((3,5-difluoro-4-((2-methylpyrimidin-5-yl)oxy)benzyl)oxy)-10,10a-dihydro-1H-oxazolo[3′,4′:3,4]imidazo[1,2-c]pyrimidin-8(3H)-one] |  | ≤ 100 | ≤ 100 |
| O=c1nc(OCc2cc(F)c(F)c(F)c2)cc2n1C[C@@H]1COCN21 [Example E153, (R)-6-((3,4,5-trifluorobenzyl)oxy)-10,10a-dihydro-1H-oxazolo[3′,4′:3,4]imidazo[1,2-c] pyrimidin-8(3H)-one] |  | ≤ 10000 | ≤ 100 |
| O=c1nc(OCc2cc(F)c(Oc3cnn(C(F)(F)F)c3)c(F)c2)cc2n1C[C@@H]1COCN21 [Example E154, (R)-6-((3,5-difluoro-4-((1-(trifluoromethyl)-1H-pyrazol-4-yl)oxy)benzyl)oxy)-10,10a-dihydro-1H-oxazolo[3′,4′:3,4]imidazo[1,2-c]pyrimidin-8(3H)-one] |  | ≤ 100 | ≤ 1 |
| Cc1cc(Oc2c(F)cc(COc3cc4n(c(=O)n3)C[C@@H]3COCN43)cc2F)ccn1 [Example E155, (R)-6-((3,5-difluoro-4-((2-methylpyridin-4-yl)oxy)benzyl)oxy)-10,10a-dihydro-1H-oxazolo[3′,4′:3,4]imidazo[1,2-c]pyrimidin-8(3H)-one] |  | ≤ 10000 | ≤ 100 |
| CCCn1cc(Oc2c(F)cc(COc3cc4n(c(=O)n3)C[C@@H]3COCN43)cc2F)cn1 [Example E156, (R)-6-((3,5-difluoro-4-((1-propyl-1H-pyrazol-4-yl)oxy)benzyl)oxy)-10,10a-dihydro-1H-oxazolo[3′,4′:3,4]imidazo[1,2-c]pyrimidin-8(3H)-one] |  | ≤ 10000 | ≤ 100 |
| Cc1ccc(Oc2c(F)cc(COc3cc4n(c(=O)n3)C[C@@H]3COCN43)cc2F)cn1 [Example E157, (R)-6-((3,5-difluoro-4-((6-methylpyridin-3-yl)oxy)benzyl)oxy)-10,10a-dihydro-1H-oxazolo[3′,4′:3,4]imidazo[1,2-c]pyrimidin-8(3H)-one] |  | ≤ 10000 | ≤ 100 |
| CCn1cc(Oc2c(F)cc(COc3cc4n(c(=O)n3)C[C@@H]3COCN43)cc2F)cn1 [Example E158, (R)-6-((4-((1-ethyl-1H-pyrazol-4-yl)oxy)-3,5-difluorobenzyl)oxy)-10,10a-dihydro-1H-oxazolo[3′,4′:3,4]imidazo[1,2-c]pyrimidin-8(3H)-one] |  | ≤ 10000 | ≤ 100 |
| Cc1ncc(Oc2c(F)cc(COc3cc4n(c(=O)n3)C[C@@H]3COCN43)cc2F)cn1 [Example E159, (R)-6-((3,5-difluoro-4-((2-methylpyrimidin-5-yl)oxy)benzyl)oxy)-10,10a-dihydro-1H-oxazolo[3′,4′:3,4]imidazo[1,2-c]pyrimidin-8(3H)-one] |  | ≤ 10000 | ≤ 100 |
| O=c1nc(OCc2cccc(F)c2F)cc2n1CC1CNCCN21 (stereo not drawn) [Example E268, 7-((2,3-Difluorobenzyl)oxy)-3,4,11,11a-tetrahydro-1H-pyrazino[1′,2′:3,4] imidazo [1,2-c]pyrimidin-9(2H)-one] | ≤ 10000 |  |  |

Results, then the molecule that gave them:

| IC50 [1] [nM] | IC50 (Lp-PLA2 in human plasma) [nM] | IC50 [2] [nM] | Compound |
| --- | --- | --- | --- |
| ≤ 10000 |  |  | CCOC(=O)C(C)N1CCN2c3cc(OCc4ccc(F)c(F)c4)nc(=O)n3CC2C1 (single isomer, unassigned) [Example E326, Ethyl 2-(7-((3,4-difluorobenzyl)oxy)-9-oxo-3,4,11,11a-tetrahydro-1H-pyrazino[1′,2′:3,4]imidazo[1,2-c]pyrimidin-2(9H)-yl)propanoate] |
| ≤ 10000 |  |  | N#Cc1cc(COc2cc3n(c(=O)n2)C[C@H]2CC(O)CN32)ccc1F (stereo in doubt) [Example E381, 2-Fluoro-5-((((7R,8aR)-7-hydroxy-1-oxo-1,6,7,8,8a,9-hexahydropyrrolo[1′,2′:3,4]imidazo[1,2-c]pyrimidin-3-yl)oxy)methyl)benzonitrile] |
|  | ≤ 10000 | ≤ 100 | CCn1cc(Oc2c(F)cc(COc3cc4n(c(=O)n3)C[C@H]3COCN43)cc2F)cn1 [Example E160, (S)-6-((4-((1-ethyl-1H-pyrazol-4-yl)oxy)-3,5-difluorobenzyl)oxy)-10,10a-dihydro-1H-oxazolo[3′,4′:3,4]imidazo[1,2-c]pyrimidin-8(3H)-one] |
|  | ≤ 10000 | ≤ 100 | Cc1cc(Oc2c(F)cc(COc3cc4n(c(=O)n3)C[C@H]3COCN43)cc2F)ccn1 [Example E161, (S)-6-((3,5-difluoro-4-((2-methylpyridin-4-yl)oxy)benzyl)oxy)-10,10a-dihydro-1H-oxazolo[3′,4′:3,4]imidazo[1,2-c]pyrimidin-8(3H)-one] |
|  | ≤ 100 | ≤ 1 | CN1CCN2c3cc(OCc4cc(F)c(Oc5ccnc(C(F)(F)F)c5)c(F)c4)nc(=O)n3CC2C1 (stereo not drawn) [Example E166, 7-((3,5-Difluoro-4-((2-(trifluoromethyl)pyridin-4-yl)oxy)benzyl)oxy)-2-methyl-3,4,11,11a-tetrahydro-1H-pyrazino[1′,2′:3,4]imidazo[1,2-c]pyrimidin-9(2H)-one] |
|  | ≤ 10000 | ≤ 100 | CN1CCN2c3cc(OCc4cc(F)c(Oc5cnn(C)c5)c(F)c4)nc(=O)n3CC2C1 (stereo not drawn) [Example E167, 7-((3,5-Difluoro-4-((1-methyl-1H-pyrazol-4-yl)oxy)benzyl)oxy)-2-methyl-3,4,11,11a-tetrahydro-1H-pyrazino[1,2′:3,4]imidazo[1,2-c]pyrimidin-9(2H)-one] |
| ≤ 10000 |  |  | Cc1ccc(COc2cc3n(c(=O)n2)CC2CNCCN32)cc1C#N (stereo not drawn) [Example E271, 2-Methyl-5-(((9-oxo-2,3,4,9,11,11a-hexahydro-1H-pyrazino[1′,2′:3,4]imidazo [1,2-c]pyrimidin-7-yl)oxy)methyl) benzonitrile] |
